Source: ChEMBL document CHEMBL3414446, “Neoechinulin B and its analogues as potential entry inhibitors of influenza viruses, targeting viral hemagglutinin” (Eur J Med Chem, 2015)
Calls of active or inactive are those of the source. No cut-off for these calls is given here.

Legend:
[1] = Antiviral activity against influenza A virus A/WSN/33 (H1N1) infected in MDCK cells assessed as reduction in cytopathic effect at 100 uM after 48 hrs by plaque assay; assay type: functional, Influenza A virus (A/WSN/1933(H1N1))
[2] = Cytotoxicity against MDCK cells assessed as cell growth after 40 hrs by CellTiter-Glo assay; assay type: cell-based, Canis lupus familiaris; conditions: dog
[3] = Antiviral activity against influenza A virus A/WSN/33 (H1N1) infected in MDCK cells assessed as reduction in cytopathic effect after 48 hrs by plaque assay; assay type: functional, cell-based, Influenza A virus (A/WSN/1933(H1N1))
[4] = test system: Influenza A virus (A/WSN/1933(H1N1)); experiment: Inhibition of influenza A virus A/WSN/33 (H1N1) Hemagglutinin 1 binding to sialic acid receptor assessed as response unit at 10 ug/ml by surface plasmon resonance assay
[5] = test system: Influenza A virus (A/WSN/1933(H1N1)); experiment: Inhibition of influenza A virus A/WSN/33 (H1N1) Hemagglutinin 1 binding to sialic acid receptor assessed as response unit at 20 ug/ml by surface plasmon resonance assay
[6] = target: Hemagglutinin (Influenza A virus) (UniProt B4URE7); experiment: Inhibition of influenza A virus A/WSN/33 (H1N1) Hemagglutinin 1 binding to sialic acid receptor assessed as response unit at 2.5 ug/ml by surface plasmon resonance assay; conditions: Influenza A virus (A/WSN/1933(H1N1))
[7] = target: Hemagglutinin (Influenza A virus) (UniProt B4URE7); experiment: Inhibition of influenza A virus A/WSN/33 (H1N1) Hemagglutinin 1 binding to sialic acid receptor assessed as response unit at 5 ug/ml by surface plasmon resonance assay; conditions: Influenza A virus (A/WSN/1933(H1N1))
[8] = target: Hemagglutinin (Influenza A virus) (UniProt B4URE7); experiment: Inhibition of influenza A virus A/WSN/33 (H1N1) Hemagglutinin 1 binding to sialic acid receptor assessed as response unit at 0.625 ug/ml by surface plasmon resonance assay; conditions: Influenza A virus (A/WSN/1933(H1N1))
[9] = Binding affinity to influenza A virus A/WSN/33 (H1N1) Hemagglutinin 1 binding to sialic acid receptor by surface plasmon resonance assay; design: species or system Influenza A virus (A/WSN/1933(H1N1))
[10] = target: Hemagglutinin (Influenza A virus) (UniProt B4URE7); experiment: Inhibition of influenza A virus A/WSN/33 (H1N1) Hemagglutinin 1 binding to sialic acid receptor assessed as response unit at 1.25 ug/ml by surface plasmon resonance assay; conditions: Influenza A virus (A/WSN/1933(H1N1))
Hemagglutinin = Hemagglutinin (Influenza A virus, UniProt B4URE7); experiment: Binding affinity to influenza A virus A/WSN/33 (H1N1) Hemagglutinin by surface Plasmon resonance assay; design: species or system Influenza A virus (A/WSN/1933(H1N1))
MDCK [11] = experiment: Antiviral activity against influenza A virus A/WSN/33 (H1N1) infected in MDCK cells assessed as inhibition of plaque formation for 1 hr at 4 degC; assay type: functional, cell-based; conditions: Influenza A virus (A/WSN/1933(H1N1))
MDCK [12] = experiment: (§1) Antiviral activity against influenza A virus A/WSN/33 (H1N1) infected in MDCK cells assessed as inhibition of plaque formation after 3 days at 37 degC; assay type: functional, cell-based; conditions: Influenza A virus (A/WSN/1933(H1N1))
MDCK [13] = experiment: Antiviral activity against influenza A virus A/WSN/33 (H1N1) infected in MDCK cells assessed as nucleoprotein level in infected cells at 2 to 8 hrs viral genome replication and translation step at 100 uM by Time-of-addition experiment; assay type: functional, cell-based; conditions: Influenza A virus (A/WSN/1933(H1N1))
[14] = test system: Influenza A virus (A/WSN/1933(H1N1)); experiment: Inhibition of influenza A virus A/WSN/33 (H1N1) […] binding to sialic acid receptor by surface Plasmon resonance assay
[15] = test system: Influenza A virus (A/WSN/1933(H1N1)); experiment: Inhibition of influenza A virus A/WSN/33 (H1N1)-induced aggregation of chicken erythrocytes after 30 mins by Hemagglutination inhibition assay; assay type: functional
[16] = target: Hemagglutinin (Influenza A virus) (UniProt B4URE7); experiment: Inhibition of influenza A virus A/WSN/33 (H1N1) Hemagglutinin transfected in Human HeLa cells assessed as polykaryon formation at 100 uM after 15 mins by microscopy; assay type: cell-based; conditions: Influenza A virus (A/WSN/1933(H1N1))
MDCK [17] = experiment: Antiviral activity against influenza A virus A/WSN/33 (H1N1) infected in MDCK cells assessed as nucleoprotein level in infected cells at 0 to 2 hrs virus entry step at 100 uM by Time-of-addition experiment; assay type: functional, cell-based; conditions: Influenza A virus (A/WSN/1933(H1N1))
MDCK [18] = experiment: Antiviral activity against influenza A virus A/WSN/33 (H1N1) infected in MDCK cells assessed as nucleoprotein level in infected cells at […] progeny virion release step at 100 uM by Time-of-addition experiment; assay type: functional, cell-based; conditions: Influenza A virus (A/WSN/1933(H1N1))
[19] = as §1; assay type: functional, cell-based, Influenza A virus (A/WSN/1933(H1N1)); conditions: 72 h

Structure (SMILES) | inhibition at 100 µM [1] [%] | CC50 at 40 h [2] [µM] | further results
C[C@@H]1NC(=O)[C@H](Cc2c[nH]c3ccccc23)NC1=O | 2.31 | > 200 | –
C=CC(C)(C)c1[nH]c2ccc(C[C@H](O)C(C)(C)OC)cc2c1/C=C1\NC(=O)[C@H](C)NC1=O | 15.2 | > 200 | –
C=CC(C)(C)c1[nH]c2ccc(C[C@H](OC(C)=O)C(C)(C)O)cc2c1/C=C1\NC(=O)[C@H](C)NC1=O | 2.5 | > 200 | –
C=CC(C)(C)c1[nH]c2ccc(C[C@H](O)C(C)(C)OC)cc2c1/C=c1\[nH]c(=O)c(=C)[nH]c1=O | 5 | > 200 | –
C=CC(C)(C)c1[nH]c2ccc(C[C@H](O)C(C)(C)OC)cc2c1C[C@@H]1NC(=O)[C@H](C)NC1=O | 5.69 | > 200 | –
C=CC(C)(C)c1[nH]c2ccc(C[C@H](OC(C)=O)C(C)(C)O)cc2c1C[C@@H]1NC(=O)[C@H](C)NC1=O | 3.48 | > 200 | –
C=CC(C)(C)c1[nH]c2c(C[C@H](O)C(C)(C)O)cccc2c1/C=C1\NC(=O)[C@H](C)NC1=O | 15.1 | > 200 | –
C=CC(C)(C)c1[nH]c2c(C[C@H](O)C(C)(C)OC)cccc2c1/C=C1\NC(=O)[C@H](C)NC1=O | 15.6 | > 200 | –
C=CC(C)(C)c1[nH]c2ccccc2c1C[C@@H]1NC(=O)[C@H](CO)NC1=O | 13 | > 200 | –
C=CC(C)(C)c1[nH]c2ccccc2c1/C=C1\NC(=O)[C@@](CO)(OC)NC1=O | 14.3 | > 200 | –
C=CC(C)(C)c1[nH]c2ccc(C[C@H](O)C(C)(C)O)cc2c1/C=C1\NC(=O)C(=O)NC1=O | 6.45 | > 200 | –
C=CC(C)(C)c1[nH]c2ccccc2c1C(O)[C@@H]1NC(=O)[C@H](C)NC1=O (stereo not given in full) | 3.38 | > 200 | –
C=CC(C)(C)c1[nH]c2ccccc2c1C(OC)[C@@H]1NC(=O)[C@H](C)NC1=O (stereo not given in full) | 18.3 | > 200 | –
C=CC(C)(C)n1cc(C[C@@H]2NC(=O)[C@H](C)NC2=O)c2ccccc21 | 17.9 | > 200 | –
C=CC(C)(C)c1[nH]c2c(CC=C(C)C)cccc2c1/C=c1\[nH]c(=O)c(=C)[nH]c1=O | 100 | > 200 | IC50 [3]: 51.4 µM
C=CC(C)(C)c1[nH]c2ccccc2c1/C=C1\NC(=O)[C@@](C)(OC)NC1=O | 82.4 | > 200 | IC50 [3]: 68.8 µM
C=CC(C)(C)c1[nH]c2ccccc2c1/C=C1\NC(=O)C(=O)NC1=O | 6.69 | > 200 | –
CC(C)=CCn1cc(C[C@@H]2NC(=O)[C@H](C)NC2=O)c2ccccc21 | 25.4 | > 200 | –
NC12CC3CC(CC(C3)C1)C2 [AMANTADINE] | – | > 200 | –
C=CC(C)(C)c1[nH]c2ccccc2c1/C=C1\NC(=O)[C@H](CO)NC1=O [CRISTATUMIN A] | 20.6 | > 200 | –
COc1cc(/C=C/C(=O)CC(=O)/C=C/c2ccc(O)c(OC)c2)ccc1O [CURCUMIN] | – | – | Activity [4]: 36.4; Activity [5]: 78.8; Activity [6]: 6.8; Activity [7]: 16.1; Activity [8]: 0.8; Kd [9]: 507 µM; Activity [10]: 2.7
C=CC(C)(C)c1[nH]c2c(CC=C(C)C)cc(CC=C(C)C)cc2c1C[C@@H]1NC(=O)[C@H](C)NC1=O [ECHINULIN] | 13 | > 200 | –
C=CC(C)(C)c1[nH]c2ccc(CC=C(C)C)cc2c1/C=C1\NC(=O)[C@H](C)NC1=O [ISOECHINULIN A] | 77.6 | > 200 | IC50 [3]: 42.7 µM
C=CC(C)(C)c1[nH]c2ccccc2c1/C=C1\NC(=O)[C@H](C)NC1=O [NEOECHINULIN A] | – | – | Activity [6]: 12.3; Activity [7]: 26.5; Kd (Hemagglutinin): 98 µM; Activity [8]: 1; Activity [10]: 4.5
C=CC(C)(C)c1[nH]c2ccccc2c1/C=c1\[nH]c(=O)c(=C)[nH]c1=O [NEOECHINULIN B] | 70.5 | > 200 | Activity [4]: 27.7; IC50 [3]: 27.4 µM; inhibition (MDCK [11]): Dose-dependent effect; Activity [5]: 66.9; Activity [6]: 0.8; inhibition (MDCK [12]): Dose-dependent effect; inhibition (MDCK [13]): inactive; Activity [7]: 8.9; Activity [14]: Active; Kd (Hemagglutinin): 32 µM; Activity [8]: -3.9; inhibition [15]: Dose-dependent effect; Activity [16]: inactive; Activity (MDCK [17]): Active; Kd [9]: 451 µM; Activity [10]: -4; inhibition (MDCK [18]): inactive
CCOC(=O)C1=C[C@@H](OC(CC)CC)[C@H](NC(C)=O)[C@@H](N)C1 [OSELTAMIVIR] | – | > 200 | IC50 [3]: 46.5 µM; IC50 [19]: 15 µM
C=CC(C)(C)c1[nH]c2ccccc2c1C[C@@H]1NC(=O)[C@H](C)NC1=O [PREECHINULIN] | 14.9 | > 200 | –
NC(=O)c1ncn([C@@H]2O[C@H](CO)[C@@H](O)[C@H]2O)n1 [RIBAVIRIN] | – | > 200 | –
CCOC(=O)c1c(CSc2ccccc2)n(C)c2cc(Br)c(O)c(CN(C)C)c12 [UMIFENOVIR] | – | – | Activity [4]: 48.7; Activity [5]: 102; Activity [6]: 7.5; Activity [7]: 20.7; Activity [8]: -1.8; Kd [9]: 0.081 µM; Activity [10]: 1.2
